Article PMC10606151, “The Functional Characteristics and Soluble Expression of Saffron CsCCD2” (International Journal of Molecular Sciences, 2023)

Legend:
CsCCD2 (TRX-CsCCD2) [1] = molecular target: T1, CsCCD2 (TRX-CsCCD2) (Crocus sativus, UniProt A0A075W695); assay: in vivo cleavage in zeaxanthin-producing E. coli, UPLC and UPLC-MS/MS of crocetin dialdehyde; assay type: cell-based; conditions: E. coli BL21(DE3) with pACCAR25ΔcrtX, 0.3 mM IPTG, 16 °C, 24 h; product crocetin dialdehyde
T1 construct: gene CCD2; CsCCD2 in pET32a, N-terminal TrxA-6xHis-thrombin-S tag fusion, tags kept; synthetic gene with synonymous G1179T; E. coli BL21(DE3) accumulating carotenoids

CsCCD2 (TRX-CsCCD2) [2] = molecular target: T1, CsCCD2 (TRX-CsCCD2); assay: in vivo cleavage in β-carotene-producing E. coli, UPLC and UPLC-MS/MS of crocetin dialdehyde; assay type: cell-based; conditions: E. coli BL21(DE3) with pACCAR16Δcrt, 0.3 mM IPTG, 16 °C, 24 h; product named crocetin dialdehyde

T1 sequence (A0A075W695 entry or part of it): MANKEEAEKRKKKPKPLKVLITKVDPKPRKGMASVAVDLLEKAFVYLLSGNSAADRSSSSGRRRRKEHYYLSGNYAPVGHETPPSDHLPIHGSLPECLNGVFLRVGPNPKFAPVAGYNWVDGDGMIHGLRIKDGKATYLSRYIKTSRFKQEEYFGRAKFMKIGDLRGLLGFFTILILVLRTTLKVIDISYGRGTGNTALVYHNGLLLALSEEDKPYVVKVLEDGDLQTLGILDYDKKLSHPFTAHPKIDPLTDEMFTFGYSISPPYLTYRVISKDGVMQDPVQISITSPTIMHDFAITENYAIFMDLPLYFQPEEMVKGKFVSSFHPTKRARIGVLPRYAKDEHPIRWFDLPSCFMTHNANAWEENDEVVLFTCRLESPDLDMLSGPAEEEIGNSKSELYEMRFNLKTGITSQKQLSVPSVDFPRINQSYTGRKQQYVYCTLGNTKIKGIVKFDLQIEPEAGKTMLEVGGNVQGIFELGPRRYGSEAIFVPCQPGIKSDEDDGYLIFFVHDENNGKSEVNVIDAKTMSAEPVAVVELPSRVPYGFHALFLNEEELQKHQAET

| SMILES | in vivo cleavage in zeaxanthin-producing E. coli, UPLC and UPLC-MS/MS of croceti (CsCCD2 (TRX-CsCCD2) [1]) | in vivo cleavage in β-carotene-producing E. coli, UPLC and UPLC-MS/MS of croceti (CsCCD2 (TRX-CsCCD2) [2]) |
| --- | --- | --- |
| CC1=C(/C=C/C(C)=C/C=C/C(C)=C/C=C/C=C(C)/C=C/C=C(C)/C=C/C2=C(C)C[C@@H](O)CC2(C)C)C(C)(C)C[C@H](O)C1 [zeaxanthin] | These results revealed that TRX-CsCCD2 cleaved zeaxanthin, β-carotene, and lycopene |  |
| CC1=C(/C=C/C(C)=C/C=C/C(C)=C/C=C/C=C(C)/C=C/C=C(C)/C=C/C2=C(C)CCCC2(C)C)C(C)(C)CCC1 [β-carotene] |  | These results revealed that TRX-CsCCD2 cleaved zeaxanthin, β-carotene, and lycopene |
